Test results as given in patent publication US20130266636A1, “METHODS FOR BLOCKING CELL PROLIFERATION AND TREATING DISEASES AND CONDITIONS RESPONSIVE TO CELL GROWTH INHIBITION” (THE REGENTS OF THE UNIVERSITY OF CALIFORNIA, priority 2010, published 2013).
Entries after “also recorded” stand apart in the source; their conditions may differ.

Legend:
A498 = assay: NCI-60 panel growth inhibition; type: cell-based; conditions: Homo sapiens, Renal Cancer, mutated RAS No, mutated BRAF No
Description: (§1) Table 1 summarizes KG5's effect in 60 NCI cancer cell lines: the NCI-60 panel showing the half maximal growth inhibitory concentration of KG5 and the RAS and BRAF status in 60 human cancer cell lines.

A549/ATCC = assay: NCI-60 panel growth inhibition; type: cell-based; conditions: Homo sapiens, NSC Lung Cancer, mutated RAS Yes, mutated BRAF No
Description: as §1

COLO 205 = assay: NCI-60 panel growth inhibition; type: cell-based; conditions: Homo sapiens, Colon Cancer, mutated RAS Yes, mutated BRAF No
Description: as §1

HCT-15 = assay: NCI-60 panel growth inhibition; type: cell-based; conditions: Homo sapiens, Colon Cancer, mutated RAS Yes, mutated BRAF Yes
Description: as §1

HOP-62 = assay: NCI-60 panel growth inhibition; type: cell-based; conditions: Homo sapiens, NSC Lung Cancer, mutated RAS Yes, mutated BRAF No
Description: as §1

IGROV1 = assay: NCI-60 panel growth inhibition; type: cell-based; conditions: Homo sapiens, IGROV-1; Ovarian Cancer; mutated RAS No; mutated BRAF No
Description: as §1

KM12 = assay: NCI-60 panel growth inhibition; type: cell-based; conditions: Homo sapiens, Colon Cancer, mutated RAS No, mutated BRAF No
Description: as §1

MDA-MB-231/ATCC = assay: NCI-60 panel growth inhibition; type: cell-based; conditions: Homo sapiens, Breast Cancer, mutated RAS Yes, mutated BRAF Yes
Description: as §1

MOLT-4 = assay: NCI-60 panel growth inhibition; type: cell-based; conditions: Homo sapiens, Leukemia, mutated RAS Yes, mutated BRAF No
Description: as §1

NCI-H226 = assay: NCI-60 panel growth inhibition; type: cell-based; conditions: Homo sapiens, NSC Lung Cancer, mutated RAS No, mutated BRAF No
Description: as §1

NCI-H460 = assay: NCI-60 panel growth inhibition; type: cell-based; conditions: Homo sapiens, NSC Lung Cancer, mutated RAS Yes, mutated BRAF No
Description: as §1

OVCAR-3 = assay: NCI-60 panel growth inhibition; type: cell-based; conditions: Homo sapiens, Ovarian Cancer, mutated RAS No, mutated BRAF No
Description: as §1

OVCAR-4 = assay: NCI-60 panel growth inhibition; type: cell-based; conditions: Homo sapiens, Ovarian Cancer, mutated RAS No, mutated BRAF No
Description: as §1

OVCAR-5 = assay: NCI-60 panel growth inhibition; type: cell-based; conditions: Homo sapiens, Ovarian Cancer, mutated RAS Yes, mutated BRAF No
Description: as §1

SK-MEL-28 = assay: NCI-60 panel growth inhibition; type: cell-based; conditions: Homo sapiens, Melanoma, mutated RAS No, mutated BRAF Yes
Description: as §1

SK-MEL-5 = assay: NCI-60 panel growth inhibition; type: cell-based; conditions: Homo sapiens, Melanoma, mutated RAS No, mutated BRAF Yes
Description: as §1

SR = assay: NCI-60 panel growth inhibition; type: cell-based; conditions: Homo sapiens, Leukemia, mutated RAS No, mutated BRAF No
Description: as §1

SW-620 = assay: NCI-60 panel growth inhibition; type: cell-based; conditions: Homo sapiens, Colon Cancer, mutated RAS No, mutated BRAF No
Description: as §1

TK-10 = assay: NCI-60 panel growth inhibition; type: cell-based; conditions: Homo sapiens, Renal Cancer, mutated RAS No, mutated BRAF No
Description: as §1

[1] = tested on: human breast (T47D) carcinoma cell line; assay: Cell viability assay in T47D cells; type: cell-based
XPA-1 cells = assay: Cell cycle analysis, bright field and confocal microscopy of XPA-1 cells; type: cell-based, human
Experimental: FIG. 38. […] FIG. 38(a) Bright field images (scale bar, 20 μm), cell cycle analysis and confocal microscopy images (scale bar, 10 μm, laminB in red and DNA in blue) of XPA-1 cells treated for 20 hours with the allosteric RAF inhibitor KG5, the ATP-competitive inhibitor Sorafenib, the MEK inhibitor PD0325901, the control compound KG1 at 5 μM or paclitaxel at 200 nM. Cells were harvested after 20 hours and the cell cycle stage was determined by flow cytometry and confocal microscopy. White arrows indicate cells arrested at pro-metaphase. Scale bars, 10 μm. FIG. 38(b) Representative confocal microscopy images of untreated XPA-1 tumor cells undergoing mitosis (left image) and XPA-1 cell arrested with KG5 at pro-metaphase (right image). Cells were stained with α-tubulin in red and DNA in blue. Scale bar, 10 μm. FIG. 38(c) XPA-1 cells transfected with a vector control or active MEK were treated with 1 μM KG5 for 20 hours or left untreated and the G2/M population was quantified by flow cytometry. Error bars represent s.d. (n=3); * two tailed p value=0.00063 using a Mann Whitney U test. FIG. 38(d) Immunoblot analysis of XPA-1 cells untreated or treated with 1 μM KG5 for 18 hours. Data are representative of four independent experiments. […] Error bars represent s.d. (n=3); * two tailed p value=0.010 using a Mann Whitney U test. Inset, Immunoblot analysis of HCT-116 cells untreated or treated with 1 μM KG5 for 18 hours.
FIG. 39. […] FIG. 39 graphically illustrates cell cycle analysis of XPA-1 cells treated with the allosteric RAF inhibitor KG5, the microtubule stabilizer paclitaxel, or the ATP-competitive RAF inhibitors sorafenib, L-779450, GW 5074, and ZM-336372. Cells were harvested after 6, 18, 24, 48 and 72 hours and the percentages of cells in G2/M and SubG1 were determined by flow cytometry. Data are representative of three independent experiments.
Cell cycle analysis was performed by flow cytometry following propidium iodide staining. Briefly, cells were harvested, fixed with ice cold methanol, treated for 45 min with 10 μg/ml of RNase and resuspended in PBS containing 10 μg/ml of PI, and analyzed by flow cytometry. Cell cycle analysis was performed in cells treated for 18 hours with the allosteric RAF inhibitor KG5, the ATP-competitive RAF inhibitors: sorafenib, L-779450, GW5074, and ZM-336372, the MEK inhibitor (PD0325901) at […] concentration or paclitaxel at 100 nM.

Flt-3 = Flt-3 (Homo sapiens, UniProt P36888); conditions: cited from earlier work
Chain of Flt-3 (P36888 27-993, species assumed): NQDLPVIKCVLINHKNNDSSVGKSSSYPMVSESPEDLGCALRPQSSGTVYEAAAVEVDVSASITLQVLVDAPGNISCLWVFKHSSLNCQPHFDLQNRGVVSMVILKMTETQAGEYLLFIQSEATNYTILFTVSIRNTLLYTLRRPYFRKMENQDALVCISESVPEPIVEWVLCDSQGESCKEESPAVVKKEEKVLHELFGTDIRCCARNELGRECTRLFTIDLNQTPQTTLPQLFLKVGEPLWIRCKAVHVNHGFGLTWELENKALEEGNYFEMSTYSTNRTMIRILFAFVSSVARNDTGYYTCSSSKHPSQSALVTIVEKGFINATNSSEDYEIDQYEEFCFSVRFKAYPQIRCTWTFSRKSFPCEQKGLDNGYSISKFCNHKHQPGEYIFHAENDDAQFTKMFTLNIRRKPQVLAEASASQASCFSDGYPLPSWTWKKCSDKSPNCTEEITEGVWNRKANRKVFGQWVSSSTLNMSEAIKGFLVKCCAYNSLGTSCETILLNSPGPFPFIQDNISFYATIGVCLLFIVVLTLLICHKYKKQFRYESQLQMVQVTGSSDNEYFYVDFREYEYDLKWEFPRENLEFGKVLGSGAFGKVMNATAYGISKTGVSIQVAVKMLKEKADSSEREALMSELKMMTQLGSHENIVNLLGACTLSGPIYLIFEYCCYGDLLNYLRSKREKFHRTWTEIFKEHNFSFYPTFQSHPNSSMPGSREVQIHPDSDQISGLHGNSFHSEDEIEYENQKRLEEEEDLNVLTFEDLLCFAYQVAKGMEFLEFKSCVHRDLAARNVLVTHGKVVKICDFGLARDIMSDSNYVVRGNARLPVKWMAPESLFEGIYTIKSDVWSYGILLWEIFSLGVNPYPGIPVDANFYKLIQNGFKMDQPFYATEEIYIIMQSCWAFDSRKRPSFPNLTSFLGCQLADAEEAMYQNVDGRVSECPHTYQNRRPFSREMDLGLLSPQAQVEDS

SMILES: CSc1nc(N)cc(Oc2ccc(-c3nnc(Nc4cccc(C(F)(F)F)c4)[nH]3)cc2)n1 [KG5]
- GI50 (A498): 468 nM
- GI50 (A549/ATCC): 501 nM
- GI50 (COLO 205): 407 nM
- GI50 (HCT-15): 490 nM
- GI50 (HOP-62): 589 nM
- GI50 (IGROV1): 447 nM
- GI50 (KM12): 468 nM
- GI50 (MDA-MB-231/ATCC): 1480 nM
- GI50 (MOLT-4): 912 nM
- GI50 (NCI-H226): 1780 nM
- GI50 (NCI-H460): 363 nM
- GI50 (OVCAR-3): 251 nM
- GI50 (OVCAR-4): 575 nM
- GI50 (OVCAR-5): 1550 nM
- GI50 (SK-MEL-28): 1580 nM
- GI50 (SK-MEL-5): 389 nM
- GI50 (SR): 398 nM
- GI50 (SW-620): 617 nM
- GI50 (TK-10): 692 nM
- cell viability ([1]; T47D): decrease cell viability
- EC50 ([1]; T47D breast cancer cells): approach picomolar (pM) EC50s
- rescue of KG5 effect on cell proliferation by ectopic active MEK (G2/M population) (XPA-1 cells; XPA-1 cells transfected with active MEK, 1 μM KG5, 20 hours): failed to rescue
- arrest at pro-metaphase (confocal microscopy) (XPA-1 cells; XPA-1 cells, 20 hours): arrests cells at pro-metaphase
- cell cycle arrest in G2/M (flow cytometry) (XPA-1 cells; XPA-1 cells, 20 hours): arrested in G2/M; also recorded: arrests cells in G2/M; also recorded: induces a G2/M arrest followed by cell death
- cell appearance and mitotic function (bright field images) (XPA-1 cells; XPA-1 cells, 20 hours, same concentration (5 μM, FIG. 38a)): look arrested in mitosis; also recorded: rounded and arrested in mitosis
- inhibition of Flt-3 (Flt-3): inhibits
